Test results as given in patent publication US20240239895A1, “COMBINATION THERAPY WITH A RAF INHIBITOR AND A PD-1 AXIS INHIBITOR” (Genentech, Inc., priority 2021, published 2024).

Experiments:
[1] = tested on: K1735 melanoma cells carrying the NRASG13D mutation; assay: K1735 syngeneic mouse model, tumor growth; assay type: in vivo
Text: Example 1 evaluated the efficacy of belvarafenib monotherapy, atezolizumab monotherapy, a combination therapy of belvarafenib and atezolizumab in a mutant K1735 subcutaneous mouse model.
The mouse strain was C3H/HeNCrlOri which is widely used for the K1735 syngeneic model. The mice were supplied by Orient Bio Inc., Korea.
The cell line was K1735 and was supplied by the American Type Culture Collection (ATCC). The K1735 cells are melanoma cells carrying the NRASG13D mutation. The cell culture in vitro media was Roswell Park Memorial Institute (RPMI) 10% fetal bovine serum (FBS) and incubation was at 5% C02 and 37° C. For the K1735 syngeneic model, cancer cells (1.5×10^8 cells/10 mL) were mixed with Hank's balanced salt solution (HBSS) and injected subcutaneously at 0.1 mL/head. Seven animals per group were treated with the vehicle (control), belvarafenib monotherapy at 7.5 mg/kg, belvarafenib monotherapy at 15 mg/kg, atezolizumab monotherapy at 10 mg/kg, belvarafenib (7.5 mg/kg) and atezolizumab (10 mg/kg) combination therapy, and belvarafenib (15 mg/kg) and atezolizumab (10 mg/kg) combination therapy. The experiment was done using 1st generation tumor tissue.
Belvarafenib dihydrochloride, 99.6% purity, that was stored at room temperature was used. Dosing was based on active ingredient free base and was corrected for assay and water content. The dosing vehicle was DMSO (5%), cremophore EL (5%), and deionized water (90%). Belvarafenib for dosing was dissolved in the vehicle. Belvarafenib oral doses of 7.5 mg/kg and 15 mg/kg were evaluated as monotherapies and in combination with atezolizumab. Belvarafenib was dose daily for 21 days.
Atezolizumab (TECENTRIQ©) that was stored at 2-8° C. was used. The dosing vehicle was saline and the dosing concentration was 5 mL/kg. An atezolizumab intravenous dose of 10 mg/kg was evaluated as a monotherapy and in combination with 7.5 mg/kg and 15 mg/kg belvarafenib. Atezolizumab was dosed three times a week for 3 weeks.
Tumor size. Tumor size was assessed by digital caliper (MITUTOYO CD-15CPX, MonotaRO Singapore, Japan) twice a week during the dosing period and calculated using the formula for an ellipsoid sphere (V=L×S2/2=mm3, where L=long diameter, and S=short diameter). Tumor size was recorded on the day of the body weight measurement and data was recorded on a tumor volume record sheet.
Relative tumor volume (RTV). RTV(%)=tumor volume/initial tumor volume×100.
Tumor Growth (TG). TG (%)=RTVdayx/RTVday0×100.
Relative tumor growth (RTG). The ratio of mean tumor volume on last measurement day to the mean tumor volume on Day 0.
Inhibition rate (IR). Inhibition of tumor growth was calculated relative to vehicle-treated controls. IR (%)=(1−mean relative tumor weight in treated group/mean relative tumor weight in control group)×100.
Maximum inhibition rate (MIR). MIR was the highest recorded IR (%) among the measured inhibition rate (%).
Statistical analysis of tumor size was performed with GraphPad Prism version 6 (GraphPad software, Inc., USA). Values were expressed as S.E.M. The significance of differences among multiple groups was assessed using a 2-way ANOVA. Post hoc pairwise comparison between groups was tested for significance using Dennett's method.

[2] = tested on: phosphorylation of MEK and ERK in the MAPK pathway; assay: MEK and ERK phosphorylation in cancer cell lines; assay type: cell-based; details: BRAF- or RAS-mutant melanoma, NSCLC, and CRC cell lines
[3] = K1735 syngeneic mouse model, body weight and clinical signs; assay type: in vivo
Description: Body weight. Body weight measurement was performed twice a week during the dosing period.
Relative body weight. Relative body weight (%)=body weight (g)/initial body weight (g)×100.
Maximum weight loss (MWL). MWL was the highest recorded weight loss (%) among the measured weight loss (%).

[4] = tested on: tumor infiltrated CD3+CD8+ T cells; assay: flow cytometry of tumor infiltrated CD3+CD8+ T cells, K1735 model; assay type: in vivo, mouse; details: belvarafenib 15 mg/kg oral QDx21; tumor tissue at end of experiment
Description: Flow cytometry was used for tumor infiltrated CD3+CD8+ T cells analysis using BD FACSCanto™ IL (BD Biosciences) and FlowJo™ v 10.6.2 software (BD Biosciences). At the end of the experiment, tumor tissue, excluding mono and combination therapy groups using belvarafenib 7.5 mg/kg, were collected for evaluation of pharmacodynamics. Tumors were surgically dissected, washed twice with phosphate-buffered saline (PBS), and then chopped into 1 mm3 pieces. The chopped tumor pieces were digested in 7 mL of dissociation medium (RPMI medium with 10% FBS, collagenase type II at 2 mg/mL, collagenase type IV at 2 mg/mL, and DNase I at 1 mg/mL) for 30 minutes at 37° C., and filtered through a 70 μm cell strainer (BD Pharm, USA). The filtered cells were then washed twice with PBS. Remaining red blood cells were lysed using ammonium-chloride-potassium (ACK) solution. The cells, which had dissociated into single cells, were stained with Fe block (anti CD16/32, Ref. 14-0161-82, Invitrogen, USA) at 4° C. for 15 minutes to prevent nonspecific antibody binding. The cells were then stained with appropriate antibodies at 4° C. for 30 minutes. To assess the presence of CD3+CD8+ T cell population, cells were stained with PE Cy7-conjugated anti-CD3e (1:100 dilution) (clone: 145-2C11, Invitrogen, USA) and FITC-conjugated anti-CD8a (1:100 dilution) (clone: 53-6.7, Invitrogen, USA).

[5] = Phase I relative bioavailability and food effect study in healthy subjects; assay type: in vivo; details: 200 mg single dose
Description: In another Phase I, single dose, randomized, crossover relative bioavailability and food effect study in healthy subjects, the influence of a formulation change from the Phase I to Phase II tablet on belvarafenib exposure was evaluated. A total of 18 healthy subjects were enrolled in the study and received the following randomized treatments: one 150-mg and one 50-mg Phase I tablet in a fed state, two 100-mg Phase II tablets in a fed state, or two 100-mg Phase II tablets in a fasted state, with a 18-day washout between treatments.

[6] = tested on: BRAF- and NRAS-mutant melanoma, KRAS mutant NSCLC, BRAF mutant CRC xenografts; assay: mouse xenograft models, monotherapy; assay type: in vivo
Text: The in vitro antitumor effects of belvarafenib have translated into efficacy in various mouse xenograft models.

[7] = tested on: BRAF- or RAS-mutant melanoma, NSCLC, CRC, and thyroid cancer cell lines; assay: growth of cancer cell lines in vitro; assay type: cell-based
[8] = belvarafenib 7.5 mg/kg oral QDx21
[9] = belvarafenib 15 mg/kg oral QDx21

Cc1ccc2c(Nc3cccc(Cl)c3F)nccc2c1NC(=O)c1csc2c(N)ncnc12 [Belvarafenib, 4-amino-N-(1-((3-chloro-2-fluorophenyl)amino)-6-methylisoquinolin-5-yl)thieno[3,2-d]pyrimidine-7-carboxamide]
MIR / Max Inhib. (maximum inhibition rate) [1, 8]: 48.2%
MTV21 (mean tumor volume on day 21 of treatment) [1, 8]: 2014.8 mm^3
RTG (relative tumor growth) [1, 8]: 12.2
MIR / Max Inhib. (maximum inhibition rate) [1, 9]: 54.7%
MTV21 (mean tumor volume on day 21 of treatment) [1, 9]: 1816.8 mm^3
RTG (relative tumor growth) [1, 9]: 11.0
IR (Day 21) (inhibition rate, tumor growth inhibition) [1, 8]: 48.2%
IR (Day 21) (inhibition rate, tumor growth inhibition) [1, 9]: 54.7%
inhibition of phosphorylation of MEK and ERK [2]: inhibits phosphorylation of MEK and ERK
MWL / Max Wt. (maximum weight loss) [3, 8]: 2.8%
MWL / Max Wt. (maximum weight loss) [3, 9]: 2.2%
CD3^+CD8^+ T cells (%) [4]: 1.27%
serious adverse events, adverse events of special interest, deaths [5]: No serious adverse events, adverse events of special interest, or deaths were reported
inhibition of tumor growth [6]: dose-dependent inhibition of tumor growth
inhibition of cell line growth [7]: inhibit the growth
